According to PMC10778704, “Comparative Analysis of Cyclization Techniques in Stapled Peptides: Structural Insights into Protein–Protein Interactions in a SARS-CoV-2 Spike RBD/hACE2 Model System” (International Journal of Molecular Sciences, 2023):
Bridge positions count the residues as written; N and C are the ends. Square brackets hold non-standard residues; d marks the D form. Peptide text beside a SMILES is read from it. S5 = C=CCCC[C@](C)(N)C(=O)O

Test system: SARS-CoV-2 pseudovirus
Settings: 48 h, 735 μM

Row | Structure (SMILES) | Inhibition of the pseudovirus
1 | CC(=O)N[C@@H](Cc1c[nH]cn1)C(=O)N[C@@H](CCC(=O)O)C(=O)N[C@H]1CCCCNC(=O)C[C@@H](C(=O)N[C@@H](Cc2ccc(O)cc2)C(=O)N[C@@H](CCC(N)=O)C(N)=O)NC(=O)[C@H](CC(C)C)NC(=O)[C@H](CC(=O)O)NC(=O)[C@H](CCC(=O)O)NC1=O [peptide 4, Ac-NH-His-Glu-[Lys-Glu-Asp-Leu-Asp]-Tyr-Gln-CO-NH2] (Ac-HEKEDLDYQ-NH2; lactam 3-7) | 48%
2 | CC(=O)N[C@@H](Cc1c[nH]cn1)C(=O)N[C@@H](CCC(=O)O)C(=O)N[C@@]1(C)CCC/C=C/CCC[C@@](C)(C(=O)N[C@@H](Cc2ccc(O)cc2)C(=O)N[C@@H](CCC(N)=O)C(N)=O)NC(=O)[C@H](CC(C)C)NC(=O)[C@H](CC(=O)O)NC(=O)[C@H](CCC(=O)O)NC1=O [peptide 11, Ac-NH-His-Glu-[S5-Glu-Asp-Leu-S5]-Tyr-Gln-CO-NH2] (Ac-HE[S5]EDL[S5]YQ-NH2; staple (E) 3-7) | 68%
